Results taken from PubChem BioAssay AID1013 (Columbia University Molecular Screening Center, 2008).
Activity calls are given as the source filed them. No rule for the calls is given here.

Key:
[1] = tested on: TNFa-stimulated cells, VCAM1 expression imaging; experiment: inhibitors of TNFa-induced VCAM1 expression, confirmation, imaging, TNFa stimulus, retest and dose response (AID 1013);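 as to cell count: compound on cells 1 h before TNFa then 24 h more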
[2] = as above; conditions: TNFa-stimulated cells, VCAM1 expression imaging; cell count; at 10 µM; stronger effect = lower value

Row | Compound | IC50 [1] | cell count [2] [%]
1 | O=C(c1ccc(Br)cc1)c1cc([N+](=O)[O-])ccc1N1CCCCC1 | > 10 µM (inactive) | 102
2 | CCN(CC)c1ccc(-c2nn3c(-c4n[nH]c5c4CCC5)nnc3s2)cc1 | > 10 µM (inactive) | 57.7
3 | COc1ccc(C2=Nn3c(nnc3-c3ccc(OC)cc3)SC2)cc1 | > 10 µM (inactive) | 114
4 | O=C(OCn1ncc(Br)c(Br)c1=O)c1c(F)cccc1F | 8.04 µM | 54.9
5 | COc1cc(C(=O)N2CCN(c3cc(Cl)ccc3Cl)CC2)cc(OC)c1OC | > 10 µM (inactive) | 82.9
6 | O=c1c2ccccc2nc(/C=C/c2ccc([N+](=O)[O-])o2)n1CCCO | 1.54 µM | 83.1
7 | O=C(COC(=O)c1ccccc1C(=O)c1ccc(Cl)c([N+](=O)[O-])c1)NC1CCCCCC1 | > 10 µM (inactive) | 91
8 | Cc1cc(C)c2nc(SCC(=O)N3CC(=O)Nc4ccccc43)c(C#N)cc2c1 | 4.81 µM | 47.2
9 | CCc1ccc(C(=O)/C=C/c2ccc([N+](=O)[O-])o2)cc1 | > 10 µM (inactive) | 94.9
10 | CCCCCc1ccc(-c2ccc(=O)[nH]n2)cc1 | 2.49 µM | 91
11 | CC[C@@H](C)[C@H](NC(=O)OC(C)(C)C)c1nnc(S(=O)(=O)Cc2cc(C)ccc2C)o1 | > 10 µM (inactive) | 117
12 | Cc1cccc(CS(=O)(=O)c2nnc([C@H](Cc3ccccc3)NC(=O)OC(C)(C)C)o2)c1 | > 10 µM (inactive) | 99.2
13 | O=C1CCCc2c1[nH]c1ccc(Cl)cc21 | 0.888 µM | 61.6
14 | Cc1ccc2nc(SCC(=O)Nc3cc(C(F)(F)F)ccc3N3CCOCC3)[nH]c2c1 | > 10 µM (inactive) | 105
15 | O=S(=O)(C/C(=C/CO)S(=O)(=O)c1ccccc1)c1ccccc1 | 1.63 µM | 9.93
16 | CC(/C=N/NC(=O)c1cc(-c2ccc(Cl)cc2)nc2ccccc12)=C\c1ccco1 | > 10 µM (inactive) | 116
17 | CCCC1=Nc2cc(C(=O)NCCCOCC)ccc2Sc2ccccc21 | 1.01 µM | 31.7
18 | Cc1ccc(C(=O)c2cc([N+](=O)[O-])ccc2N2CCOCC2)c(C)c1 | 2.86 µM | 41.4
19 | COc1ccccc1-n1cnc2cc(NCc3ccco3)ccc21 | > 10 µM (inactive) | 41.8
20 | OCCN=C1CCCc2c1[nH]c1ccc(Br)cc21 | 0.15 µM | 76.3
21 | C#CC(=O)N(c1cccc(OC)c1)C(C(=O)NC1CCCC1)c1cccs1 (stereo unspecified) | 1.77 µM | 0.98
22 | COc1ccc(C(=O)c2c(C(F)(F)F)oc3c2C(=O)c2ccccc2C3=O)cc1 | > 10 µM (inactive) | 105
23 | COc1ccc(OC)c(C2C3=C(COC3=O)Nc3cc4c(cc32)OCO4)c1 (stereo unspecified) | > 10 µM (inactive) | 112
24 | COc1cc(/C=N/Nc2snc(SC)c2C#N)ccc1O | > 10 µM (inactive) | 105
25 | O=[N+]([O-])/C=C/c1c(OCc2ccccc2)ccc2ccccc12 | > 10 µM (inactive) | 112
26 | O=C(N/N=C/C(Br)=C/c1ccccc1)c1n[nH]c2c1CCC2 | 0.0993 µM | 28.6
27 | O=C(OCn1ncc(Br)c(Br)c1=O)c1ccc(F)cc1 | 2.86 µM | 2.02

Row | Compound | IC50 [1] | cell count [2] [%]
28 | Cc1ccc(NC2=C/C(=N\S(=O)(=O)c3cccs3)c3ccccc3C2=O)c(C)c1 | > 10 µM (inactive) | 104
29 | CCC1=Nc2cc(C(=O)NCCCOC)ccc2Sc2ccccc21 | 1.67 µM | 34.9
30 | Cc1cc(=O)oc2cc(OCC3CC(c4ccccc4Cl)=NO3)ccc12 (stereo unspecified) | > 10 µM (inactive) | 106
31 | Cc1cccc2cc(C#N)c(SCC(=O)N3CC(=O)Nc4ccccc43)nc12 | > 10 µM (inactive) | 110
32 | N#CC1=C(N)Oc2c(ccc3ccccc23)C1c1cccs1 (stereo unspecified) | > 10 µM (inactive) | 69.2
33 | O=S(=O)(c1ccc(Cl)cc1)c1snnc1-c1ccccc1 | 4.86 µM | 71.6
34 | O=[N+]([O-])c1ccc(Sc2nc3ccccc3o2)c([N+](=O)[O-])c1 | > 10 µM (inactive) | 106
35 | COc1cc(-c2nnc3n2N=C(c2ccccc2)CS3)cc(OC)c1OC | > 10 µM (inactive) | 99.8
36 | COc1ccc(OC)c(NS(=O)(=O)c2ccc(N3CCCC3=O)cc2)c1 | 2.93 µM | 43.7
37 | Cc1cc(C)c(S(=O)(=O)Nc2ccc3c4c(cccc24)CC3)c(C)c1 | > 10 µM (inactive) | 106
38 | CCOc1cc(/C=N\NC(=O)Cc2ccccc2)ccc1OCC(=O)Nc1ccc(C)c(C)c1 | > 10 µM (inactive) | 110
39 | Nc1nnnn1/N=C/C(Br)=C/c1ccccc1 | > 10 µM (inactive) | 106
40 | C=CCSc1nc2ccccc2n1C(=O)/C=C/c1cc(OC)c(OC)c(OC)c1 | > 10 µM (inactive) | 106
41 | COc1ccccc1-c1cc(C(F)(F)F)nc(S(=O)(=O)CCCC(=O)N2CCCCC2C)n1 (stereo unspecified) | > 10 µM (inactive) | 88.8
42 | COc1ccc(N=c2oc3ccc(OC)cc3cc2-c2nc3ccccc3[nH]2)cc1 | > 10 µM (inactive) | 110
43 | Cc1cccc(NC(=O)CSc2nc3ccc(NC(=O)CSc4nnnn4-c4ccccc4)cc3s2)c1C | > 10 µM (inactive) | 107
44 | O=C1c2cccc3c([N+](=O)[O-])ccc(c23)C(=O)N1c1nccs1 | > 10 µM (inactive) | 101
45 | CC1=C([N+](=O)[O-])C(c2cccc(Br)c2)C2=C(N1)c1ccccc1C2=O (stereo unspecified) | > 10 µM (inactive) | 68.1
46 | O=C(c1ccco1)N1CCN(C(=O)N2c3ccccc3Sc3ccccc32)CC1 | 3.52 µM | 40.3
47 | N=c1c2c(-c3ccccc3)c(-c3ccccc3)n(Cc3ccccc3)c2ncn1CCCn1ccnc1 | 1.06 µM | 56.8
48 | COc1ccc(CCNc2nnc(Sc3nnnn3-c3ccccc3)s2)cc1OC | 1.61 µM | 27.4
49 | O=C1C(=O)c2ccc(-c3ccccc3)cc2-c2ccccc21 | > 10 µM (inactive) | 109
50 | Cc1ccc(O)c(NC(=O)CCC2CCCCC2)c1 | > 10 µM (inactive) | 113
51 | COc1ccc(NC(=O)/C(Cl)=C(/Cl)S(=O)Cc2ccccc2)cn1 (stereo unspecified) | 1.06 µM | 34.2
52 | Cc1ccccc1CS(=O)(=O)c1nnc([C@H](Cc2ccccc2)NC(=O)OC(C)(C)C)o1 | > 10 µM (inactive) | 114
53 | CN1Cc2cc(C(=O)c3cc(Cl)cc(CSc4ncccn4)c3O)cnc2NC1=O | > 10 µM (inactive) | 85.8
